Test system: BT474 tumors
Assay: Targeted metabolomic analysis of 99 metabolites in BT474 tumors
Format: in vivo, mouse
Conditions: VY-3-135 vs vehicle
Description: All metabolomic experiments were performed in serum-like modified Eagle's medium (SMEM). SMEM contains 54 different nutrients that are found in the bloodstream at concentrations that are physiologically relevant to humans. SMEM was supplemented with 10% or 1% fetal bovine serum (FBS; Life Technologies). Cells were grown in normoxia (atmospheric oxygen) or hypoxia (1% oxygen) while being incubated in uniformly labeled ^13C2-acetate (0.100 mM; Cambridge Isotope Laboratories). Lengths of incubation are described in the figure legends. For extraction of metabolites from cultured cells, SMEM medium was aspirated and cells were washed once in ice-cold PBS. Metabolites were extracted by adding a solution of LC-MS grade methanol/acetonitrile/water (5:3:2) to the well. Plates were incubated at 4° C. for 5 minutes on a rocker and then the extraction solution was collected. The metabolite extract was cleared by centrifugation at 15,000×g for 10 minutes at 4° C. Supernatants were transferred to LC-MS silanized glass vials with PTFE caps and either run immediately on the LC-MS or stored at −80° C. For extraction of metabolites from tumors, tumor bearing mice were sacrificed by exsanguination under anesthesia and tumors were immediately excised and flash frozen in liquid nitrogen. Frozen tumors were weighed and then extracted at 40 mg/mL in extraction solution using a tissue homogenizer (Bullet Blender) and stainless steel beads. The metabolite extract was cleared twice by centrifugation at 15,000×g for 10 minutes at 4° C. Supernatants were transferred to LC-MS silanized glass vials with PTFE caps and either run immediately on the LC-MS or stored at −80° C.
LC-MS analysis was performed on a Q Exactive Hybrid Quadrupole-Orbitrap HF-X MS (ThermoFisher Scientific) equipped with a HESI II probe and coupled to a Vanquish Horizon UHPLC system (ThermoFisher Scientific). 0.002 ml of sample is injected and separated by HILIC chromatography on a ZIC-pHILIC 2.1-mm. Samples are separated by ammonium carbonate, 0.1% ammonium hydroxide, pH 9.2, and mobile phase B is acetonitrile. […] The relevant MS parameters were as listed: sheath gas, 40; auxiliary gas, 10; sweep gas, 1; auxiliary gas heater temperature, 350° C.; spray voltage, 3.5 kV for the positive mode and 3.2 kV for the negative mode. Capillary temperature was set at 325° C., and funnel RF level at 40. Samples were analyzed in full MS scan with polarity switching at scan range 65 to 975 m/z; 120,000 resolution; automated gain control (AGC) target of 1E6; and maximum injection time (max IT) of 100 milliseconds. Identification and quantitation of metabolites was performed using an annotated compound library and TraceFinder 4.1 software. The “M+X” nomenclature refers to the isotopolog for that given metabolite. Isotopologs are chemically identical metabolites that differ only in their number of carbon-13 atoms. For instance, “M+2 citrate” means that two of the six carbons in citrate are carbon-13 while the other four are carbon-12. “M+4 citrate” means that four of the six carbons in citrate are carbon-13 while the other two are carbon-12.
A targeted metabolomic analysis of 99 metabolites in vehicle versus VY-3-135 treated BT474 tumors was performed (FIG. 6E and Table 2).

CCn1c(C(O)(c2ccccc2)c2ccccc2)nc2ccc(C(=O)NC[C@@H](C)O)cc21 [VY-3-135, (R)-1-ethyl-2-(hydroxydiphenylmethyl)-N-(2-hydroxypropyl)-1H-benzo[d]imidazole-6-carboxamide]
Log2 FC (VY/Veh) 2-aminobutyrate: −0.5166
Log2 FC (VY/Veh) 3 -hydroxybutryate: −1.001
Log2 FC (VY/Veh) 3-phosphoglycerate: −0.5802
Log2 FC (VY/Veh) 4-hydroxyproline: −0.725
Log2 FC (VY/Veh) ADP: −1.452
Log2 FC (VY/Veh) AMP: −0.6555
Log2 FC (VY/Veh) ATP: −2.026
Log2 FC (VY/Veh) CDP: −1.642
Log2 FC (VY/Veh) CDP-choline: −2.603
Log2 FC (VY/Veh) CDP-ethanolamine: −1.552
Log2 FC (VY/Veh) CMP: −0.8199
Log2 FC (VY/Veh) DHAP/G3P: −2.029
Log2 FC (VY/Veh) FBP: −1.71
Log2 FC (VY/Veh) GDP: −2.599
Log2 FC (VY/Veh) GMP: −1.275
Log2 FC (VY/Veh) GSH: −0.6903
Log2 FC (VY/Veh) GSSG: 0.2094
Log2 FC (VY/Veh) IMP: 1.067
Log2 FC (VY/Veh) PEP: −1.207
Log2 FC (VY/Veh) SAH: −0.3532
Log2 FC (VY/Veh) SAM: −1.16
Log2 FC (VY/Veh) UDP: −1.495
Log2 FC (VY/Veh) UDP-GlcNAc: −0.8007
Log2 FC (VY/Veh) UMP: −0.4024
Log2 FC (VY/Veh) UTP: −2.182
Log2 FC (VY/Veh) acetyl-aspartate: −0.7575
Log2 FC (VY/Veh) acetyl-carnitine: −0.5449
Log2 FC (VY/Veh) acetyl-glycine: −1.037
Log2 FC (VY/Veh) acetyl-putrescine: −1.423
Log2 FC (VY/Veh) adenine: 1.003
Log2 FC (VY/Veh) adenosine: 1.879
Log2 FC (VY/Veh) aketoglutarate: 0.9192
Log2 FC (VY/Veh) alanine: −0.6739
Log2 FC (VY/Veh) arginine: 0.7229
Log2 FC (VY/Veh) arginosuccinate: −0.1741
Log2 FC (VY/Veh) asparagine: −1.225
Log2 FC (VY/Veh) aspartate: 0.009996
Log2 FC (VY/Veh) betaine: −0.4739
Log2 FC (VY/Veh) carbamoyl-asp: −0.787
Log2 FC (VY/Veh) carnitine: −0.6768
Log2 FC (VY/Veh) choline: −0.5304
Log2 FC (VY/Veh) cis-aconitate: −0.2247
Log2 FC (VY/Veh) citrate: −0.1134
Log2 FC (VY/Veh) citrulline: −0.3937
Log2 FC (VY/Veh) creatine: −0.5321
Log2 FC (VY/Veh) creatinine: 0.01869
Log2 FC (VY/Veh) cystathionine: −1.232
Log2 FC (VY/Veh) cystine: −0.4837
Log2 FC (VY/Veh) cytidine: 1.244
Log2 FC (VY/Veh) cytosine: 1.232
Log2 FC (VY/Veh) ethanolamine-P: −1.364
Log2 FC (VY/Veh) glucose-6-P: 0.03691
Log2 FC (VY/Veh) glucose/hexose: 0.9908
Log2 FC (VY/Veh) glutamate: −0.5429
Log2 FC (VY/Veh) glutamine: 0.09203
Log2 FC (VY/Veh) glycerol: 0.1079
Log2 FC (VY/Veh) glycerol-3-P: −0.8487
Log2 FC (VY/Veh) glycine: −0.4034
Log2 FC (VY/Veh) guanine: 1.969
Log2 FC (VY/Veh) guanosine: 3.356
Log2 FC (VY/Veh) histidine: −0.4238
Log2 FC (VY/Veh) hypoxanthine: 0.3548
Log2 FC (VY/Veh) isoleucine: −1.483
Log2 FC (VY/Veh) lactate: −1.761
Log2 FC (VY/Veh) leucine: −0.6361
Log2 FC (VY/Veh) lysine: −1.026
Log2 FC (VY/Veh) malate: 0.0239
Log2 FC (VY/Veh) malonate: 0.1254
Log2 FC (VY/Veh) methionine: −1.631
Log2 FC (VY/Veh) methyl-lysine: −1.396
Log2 FC (VY/Veh) myo-inositol: −0.4307
Log2 FC (VY/Veh) niacin/nicotinate: 1.977
Log2 FC (VY/Veh) nicotinamide: 0.1254
Log2 FC (VY/Veh) nicotinamide N-oxide: 4.808
Log2 FC (VY/Veh) ornithine: −0.7516
Log2 FC (VY/Veh) pantothenate: −0.6181
Log2 FC (VY/Veh) phenylalanine: −0.5091
Log2 FC (VY/Veh) phosphocholine: −0.7924
Log2 FC (VY/Veh) phosphocreatine: 0.324
Log2 FC (VY/Veh) proline: −0.4024
Log2 FC (VY/Veh) pyridoxine: 0.3808
Log2 FC (VY/Veh) pyruvate: −0.8037
Log2 FC (VY/Veh) riboflavin: −2.12
Log2 FC (VY/Veh) ribose: −0.5026
Log2 FC (VY/Veh) ribose-P: 0.2634
Log2 FC (VY/Veh) sedoheptulose-P: −0.2584
Log2 FC (VY/Veh) serine: 1.09
Log2 FC (VY/Veh) succinate: −1.793
Log2 FC (VY/Veh) succinyladenosine: −0.8738
Log2 FC (VY/Veh) succinylcysteine: −0.9561
Log2 FC (VY/Veh) succinylglutathione: −1.861
Log2 FC (VY/Veh) taurine: 0.1159
Log2 FC (VY/Veh) threonine: −0.9186
Log2 FC (VY/Veh) thymidine: 2.328
Log2 FC (VY/Veh) tryptophan: −0.2045
Log2 FC (VY/Veh) tyrosine: −0.8432
Log2 FC (VY/Veh) urate: −0.6288
Log2 FC (VY/Veh) valine: −0.5942
Log2 FC (VY/Veh) xanthine: −0.8286
